# System: β-catenin-TCF-mediated reporter transcription activity in Colo 205 cells
# Assay: Colo 205 reporter assay (TCF/LEF luciferase)
# Type: cell-based
# Details: Homo sapiens, COLO 205, 5 h, Colo 205 TCF/LEF luciferase reporter, five hours after addition of compound; read-out: TCF reporter Colo205 IC50
# Method in brief: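 Luciferase signal from a TCF/LEF-driven reporter, stably integrated in Colo 205 colon cancer cells, was measured 5 h after compound addition.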
row,SMILES,IC50 [µM]
1,"Cc1nc(N[C@H]2C[C@H](Nc3cc(C(F)(F)F)ncn3)C2)nc2c1NC(=O)[C@H](C(C)C)N2C [Compound 530, (S)-7-isopropyl-4,8-dimethyl-2-((trans-3-((6-(trifluoromethyl)pyrimidin-4-yl)amino)cyclobutyl)amino)-7,8-dihydropteridin-6(5H)-one]",≥ 5
2,"Cc1nc(N[C@H]2C[C@H](Nc3cccc(C(F)(F)F)n3)C2)nc2c1NC(=O)[C@H](C(C)C)N2C [Compound 531, (S)-7-isopropyl-4,8-dimethyl-2-((trans-3-((6-(trifluoromethyl)pyridin-2-yl)amino)cyclobutyl)amino)-7,8-dihydropteridin-6(5H)-one]",0.3 to 1
3,"Cc1nc(N[C@H]2C[C@@H](Nc3cccc(C(F)(F)F)n3)C2)nc2c1NC(=O)[C@H](C(C)C)N2C [Compound 532, (S)-7-isopropyl-4,8-dimethyl-2-((cis-3-((6-(trifluoromethyl)pyridin-2-yl)amino)cyclobutyl)amino)-7,8-dihydropteridin-6(5H)-one]",0.3 to 1
4,"Cc1nc(N[C@H]2C[C@H](Nc3ccc(C(F)(F)F)cn3)C2)nc2c1NC(=O)[C@H](C(C)C)N2C [Compound 533, (S)-7-isopropyl-4,8-dimethyl-2-((trans-3-((5-(trifluoromethyl)pyridin-2-yl)amino)cyclobutyl)amino)-7,8-dihydropteridin-6(5H)-one]",0.3 to 1
5,"Cc1nc(N[C@H]2C[C@@H](Nc3ccc(C(F)(F)F)cn3)C2)nc2c1NC(=O)[C@H](C(C)C)N2C [Compound 534, (S)-7-isopropyl-4,8-dimethyl-2-((cis-3-((5-(trifluoromethyl)pyridin-2-yl)amino)cyclobutyl)amino)-7,8-dihydropteridin-6(5H)-one]",< 0.3

# Next, values leading:
row,IC50 [µM],SMILES
1,< 0.3,"Cc1nc(N[C@H]2C[C@H](NCc3cc(F)c(F)c(F)c3)C2)nc2c1NC(=O)[C@H](C(C)C)N2C [Compound 535, (S)-7-isopropyl-4,8-dimethyl-2-((trans-3-((3,4,5-trifluorobenzyl)amino)cyclobutyl)amino)-7,8-dihydropteridin-6(5H)-one]"
2,< 0.3,"Cc1nc(N[C@H]2C[C@@H](NCc3cc(F)c(F)c(F)c3)C2)nc2c1NC(=O)[C@H](C(C)C)N2C [Compound 536, (S)-7-isopropyl-4,8-dimethyl-2-((cis-3-((3,4,5-trifluorobenzyl)amino)cyclobutyl)amino)-7,8-dihydropteridin-6(5H)-one]"
3,1 to 5,"Cc1nc(N[C@H]2C[C@H](NC(=O)N(C)C3CCC(F)(F)CC3)C2)nc2c1NC(=O)[C@H](C(C)C)N2C [Compound 537, 1-(4,4-difluorocyclohexyl)-3-(trans-3-(((S)-7-isopropyl-4,8-dimethyl-6-oxo-5,6,7,8-tetrahydropteridin-2-yl)amino)cyclobutyl)-1-methylurea]"
4,1 to 5,"Cc1nc(N[C@H]2C[C@@H](NC(=O)N(C)C3CCC(F)(F)CC3)C2)nc2c1NC(=O)[C@H](C(C)C)N2C [Compound 538, 1-(4,4-difluorocyclohexyl)-3-(cis-3-(((S)-7-isopropyl-4,8-dimethyl-6-oxo-5,6,7,8-tetrahydropteridin-2-yl)amino)cyclobutyl)-1-methylurea]"
5,0.3 to 1,"Cc1nc(N[C@H]2C[C@@H](Nc3ccnc(C(F)(F)F)n3)C2)nc2c1NC(=O)[C@H](C(C)C)N2C [Compound 539, (S)-7-isopropyl-4,8-dimethyl-2-((cis-3-((2-(trifluoromethyl)pyrimidin-4-yl)amino)cyclobutyl)amino)-7,8-dihydropteridin-6(5H)-one]"
6,1 to 5,"Cc1nc(N[C@H]2C[C@H](Nc3ccnc(C(F)(F)F)n3)C2)nc2c1NC(=O)[C@H](C(C)C)N2C [Compound 540, (S)-7-isopropyl-4,8-dimethyl-2-((trans-3-((2-(trifluoromethyl)pyrimidin-4-yl)amino)cyclobutyl)amino)-7,8-dihydropteridin-6(5H)-one]"
